Reference: patent US20240165062A1, “COMPOSITION FOR INCREASING MUSCLE” (YUKI GOSEI KOGYO CO., LTD., priority 2022, published 2024)

What was measured:
[1] = test system: MyHCIIb gene in C2C12 cells; settings: β-alanine added twice at 24 h interval, vs 1×PBS control, FIG. 1
Protocol: (§1) In this example, β-alanine was added to C2C12 cells and the expression of MyHCI (slow muscle marker), MyHCIIa (fast muscle marker), MyHCIIb (fast muscle marker), and MyHCIIx (fast muscle marker) genes were examined.
(§2) High Pure RNA Isolation Kit (Roche, Basel, Switzerland) was used for total RNA preparation. C2C12 cells were seeded at a concentration of 5.0×10^4 cells/mL in 5 mL Dish. After 24 hours of incubation, β-alanine was added. 1×PBS was added to the control cells at the same volume as the added amount of β-alanine. Twenty-four hours after the addition of 3-alanine, sample was secondary added. After 24 hours of incubation, the culture supernatant was aspirated off. After washing the cells twice with 1×PBS, 1×PBS 200 μL/dish and […] of Lysis/-binding buffer included in High Pure RNA Isolation Kit were added to the entire dish, and the total amount was collected in a 1.5-mL tube. The collected samples were suspended using a vortex mixer for 60 seconds. The filter tube and the collection tube in the kit were assembled, the sample solution was added to the filter tube, and centrifuged at 4° C., 9200×g for 15 seconds. The liquid drained into the collection tube was discarded, and the filter tube and collection tube were assembled again. In a 1.5-mL tube, 90 μL of DNase Incubation Buffer per sample and 10 μL of DNase I per sample were mixed. The mixture was added to the filter tubes and incubated at room temperature for 15 minutes. After incubation, Wash buffer I (500 μL) was added to the filter tubes and centrifuged at 4° C., 9200×g for 15 seconds.

[2] = test system: MyHCIIa gene in C2C12 cells; settings: β-alanine added twice at 24 h interval, vs 1×PBS control, FIG. 1
Protocol: as §1, §2

[3] = test system: MyHCI gene in C2C12 cells; settings: β-alanine added twice at 24 h interval, vs 1×PBS control, FIG. 1
Protocol: as §1, §2

[4] = test system: MyHCIIx gene in C2C12 cells; settings: β-alanine added twice at 24 h interval, vs 1×PBS control, FIG. 1
Protocol: as §1, §2

C2C12 cells = settings: β-alanine 0.5 mM or 1.0 mM every 2 days, 9 days from induction of differentiation, FIG. 3
[5] = test system: MyHCIIb gene in C2C12 cells; settings: differentiated C2C12 cells, β-alanine 1 mM and 10 mM for 2 days, FIG. 4
Protocol: (§3) FIG. 4 is graphs showing the mRNA expressions of MyHCI (slow muscle)(A), MyHCIIa (fast muscle)(B), MyHCIIx (fast muscle)(C), and MyHCIIb (fast muscle) (D) measured by RT-qPCR in the C2C12 cells wherein the differentiated C2C12 cells were then treated by addition of 0.5, 1, or 10 (mM) of β-alanine for 2 days.
as §1
(§4) C2C12 cells were seeded in 6-well plates at a concentration of 2.0×10^5 cells/mL, and after 48 hours the medium was replaced with DMEM medium containing 2% Horse Serum (HS) (Thermo Fisher Scientific) to induce differentiation. Further, after 24 hours, the medium was replaced with DMEM medium containing 2% HS. The medium was changed every 2 days thereafter, and further the medium changes and the additions of β-alanine (0.5 mM, 1 mM, or 10 mM) were conducted on the 8th and 9th day after seeding. The cells on 10th day after seeding were used for the experiments. For controls, 1×PBS was added at the same volume as the amount of β-alanine.
(§5) Total RNA preparation and RT-qPCR were performed according to Example 1.

[6] = test system: MyHCIIa gene in C2C12 cells; settings: differentiated C2C12 cells, β-alanine 0.5 mM, 1 mM and 10 mM for 2 days, FIG. 4
Protocol: as §3, §1, §4, §5

[7] = test system: MyHCI gene in C2C12 cells; settings: differentiated C2C12 cells, β-alanine 0.5 mM, 1 mM and 10 mM for 2 days, FIG. 4
Protocol: as §3, §1, §4, §5

[8] = test system: MyHCIIx gene in C2C12 cells; settings: differentiated C2C12 cells, β-alanine 1 mM and 10 mM for 2 days, FIG. 4
Protocol: as §3, §1, §4, §5

MyoD gene in C2C12 cells = settings: vs 1×PBS control, FIG. 2

NCCC(=O)O [β-alanine]
expression of the fast muscle marker MyHCIIb [1]: increased
expression of the fast muscle marker MyHCIIa [2]: increased
expression of the slow muscle marker MyHCI [3]: increased
expression of the fast muscle marker MyHCIIx [4]: increased
differentiation of myoblasts into myotube cells (C2C12 cells): promoted
number of myotubular cells (C2C12 cells): increased
ratio of slow muscle cells (slow muscle area / myotube area) (C2C12 cells): increased as the amount of β-alanine increased
MyHCIIb (fast muscle) mRNA expression [5]: significantly increased
MyHCIIa (fast muscle marker) gene expression [6]: concentration-dependent enhancement
MyHCI (slow muscle marker) mRNA expression [7]: significantly increased
MyHCIIx (fast muscle) mRNA expression [8]: significantly increased
expression of MyoD, a transcriptional regulator of muscle differentiation (MyoD gene in C2C12 cells): increased
